According to US20090247520A1, “INHIBITORS OF ANTIGEN RECEPTOR-INDUCED NF-kappa B ACTIVATION” (The Burnham Institute for Medical Research, priority 2008, published 2009):
“Also recorded” adds a separate entry of the source.

Columns and labels:
Assay type in all cases: cell-based
[1] = test system: caspase-8 p43/41 processing intermediate; test: Caspase-8 p43/41 processing in HEK293 cells after PMA/Ion; conditions: data not shown
Description: Caspase-8 plays an essential role in antigen receptor-mediated NF-κB activation. It was recently reported that MALT1 interacts with Caspase-8 and activates this protease upon antigen receptor activation. […] We then examined if CID-2858522 affected the pathway at this point. PMA induced significant MALT1-caspase-8 interaction in HEK293 cells over-expressing Flag-MALT1 and Caspase-8. […] The caspase-8 p43/41 processing intermediate was generated in HEK293 cells after PMA/Ion treatment. […] We then assessed the effects of CID-2858522 on PMA-induced proteolytic processing of c-FLIP, a Caspase-8-mediated event recently shown to be required for antigen receptor mediated NF-κB activation.

[2] = test system: TNF-induced NF-κB reporter gene activity; test: TNF-induced NF-κB reporter counter-screen in HEK293-NFκB-Luc cells; conditions: TNF 10 ng/mL; CID-2858522 at concentrations as high as 4 μM
Procedure: (A) Structures of two hit compounds, CID-2858522 (left) and CID-2998237 (right) are shown; (B, C) 293-NF-κB-luc cells were pretreated for 2 hrs with various concentration of either CID-2858522 (B) or CID-29982387 (C) and then stimulated with TNF (10 ng/mL) or PMA/lonomycin (10 ng/mL; 5 ng/mL) for 16 h. Luciferase activity was measured and data were expressed as a percentage relative to control treatment with DMSO only (mean±SD; n=3). (D) 293-NF-κB-luc cells were pretreated for 2 h with various concentrations of CID-2858522 or CID-2998237, then stimulated with PMA/lonomycin for 16 h. IL-8 release into the medium was measured, expressing data as a percentage relative to control cultures treated with DMSO (mean±SD; n=3). (E) 293-NF-κB-luc cells were pretreated with CID-2858522 and then stimulated with PDBu for 16 h, IL-8 production and NF-κB luciferase activity were measured as above. (F) 293-NF-κB-luc cells were pretreated for 2 h with various concentrations of CID-2858522 or a PKC inhibitor (Bisindolylmaleimide I) at 1 μM followed by PMA/Ionomycin (10 ng/mL) stimulation for 2 h, then p65-DNA-binding activity was measured in nuclear extracts (10 μg protein), expressing data as fold-increase relative to unstimulated cells (mean±SD; n=3).
Counter Screening and Secondary Assays. […] Luciferase activity was measured using Britelite kit (Perkin Elmer). […]

[3] = test system: LPS (TLR4 agonist) induced IL-6 production; test: IL-6 production by THP.1 monocytes stimulated with LPS; conditions: listed as CID-2858522
Description: FIG. 1 is a flow chart of screening and counter-screenings for selective inhibitors of antigen-receptor induced NF-κB pathway. A total of 114,889 compounds were screened. From a screen of 53,280 commercially available compounds (left column), 519 hits were obtained, of which 248 reconfirmed using the same primary screening assay. […] From these 11 active compounds, one hit, CID-2858522, inhibited PMA/Ionomycin-induced production of cytokine IL-8 by the HEK293 cell line. CID-2858522 was then characterized (right column). PDB was substituted for PMA to confirm suppression of an alternative PKC activator. Pathway selectivity was assessed using panels of cell lines, starting with HEK293 cells in which each of the remaining NF-κB activation pathways was stimulated, showing inhibition only of PMA/Ionomycin-induced NF-κB reporter gene activity (panel 1). […]

Compound | inhibition of caspase-8 p43/41 processing intermediate [1] | inhibition of TNF-induced NF-κB reporter gene activity [2] | suppression of IL-6 production, LPS-stimulated THP.1 [3]
CN(C)CCCn1cc(C2=C(c3c[nH]c4ccccc34)C(=O)NC2=O)c2ccccc21 [Bisindolylmaleimide I, reference compound] | inhibited | – | –
Cc1cc2nc(NCCCO)n(CC(=O)c3cc(C(C)(C)C)c(O)c(C(C)(C)C)c3)c2cc1C [Compound 1, 2-(2-(3-Hydroxypropylamino)-5,6-dimethyl-1H-benzo[d]imidazol-1-yl)-1-(3,5-di-tert-butyl-4-hydroxyphenyl)ethanone] | – | did not inhibit | failed to inhibit; also recorded: did not suppress
